Reference: ChEMBL document CHEMBL1201862, “PubChem BioAssay data set” (2004)
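Cultured in 96-well plates, cells were exposed to test compound for 48 hours across five concentrations. Abbreviation: GI50, concentration required for 50% inhibition of growth.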 Calls of active or inactive are those of the source. Rule as the data show it: active = GI50 up to about 1.1 µM and inactive = higher.

Assays:
Test in all cases: NCI anticancer screen, dose series, 48 h
T47D = test system: T47D
A498 = test system: A498
TK-10 = test system: TK-10
HCT-15 = test system: HCT-15
MDA-MB-435 = test system: MDA-MB-435
SF-539 = test system: SF-539
MOLT-4 = test system: MOLT-4
OVCAR-3 = test system: OVCAR-3
OVCAR-5 = test system: OVCAR-5
IGROV-1 = test system: IGROV-1
SN12C = test system: SN12C
HCC 2998 = test system: HCC 2998
OVCAR-8 = test system: OVCAR-8
M14 = test system: M14
HT-29 = test system: HT-29
SF-268 = test system: SF-268
LOX IMVI = test system: LOX IMVI
Malme-3M = test system: Malme-3M
786-0 = test system: 786-0
SNB-75 = test system: SNB-75

| SMILES | GI50 (T47D) | GI50 (A498) | GI50 (TK-10) | GI50 (HCT-15) [µM] | GI50 (MDA-MB-435) | GI50 (SF-539) | GI50 (MOLT-4) | GI50 (OVCAR-3) | GI50 (OVCAR-5) | GI50 (IGROV-1) | GI50 (SN12C) | GI50 (HCC 2998) | GI50 (OVCAR-8) | GI50 (M14) | GI50 (HT-29) | GI50 (SF-268) | GI50 (LOX IMVI) | GI50 (Malme-3M) | GI50 (786-0) | GI50 (SNB-75) |
| --- | --- | --- | --- | --- | --- | --- | --- | --- | --- | --- | --- | --- | --- | --- | --- | --- | --- | --- | --- | --- |
| CCN(CC)c1ccc(/C=c2\nc(-c3ccccc3)n3c2nc2ccccc23)cc1 | 0.0256 µM (active) | 64.4 µM (inactive) | 17 µM (inactive) | 1.23 | 8.71 µM (inactive) | 1.48 µM (inactive) | 1.63 µM (inactive) | 9.62 µM (inactive) | 77.3 µM (inactive) | 7.82 µM (inactive) | 16.8 µM (inactive) | 2.72 µM (inactive) | 9.79 µM (inactive) | 7.46 µM (inactive) | 1.89 µM (inactive) | 26.5 µM (inactive) | 2.04 µM (inactive) | 13 µM (inactive) | 4.27 µM (inactive) | – |
| COc1nc2c(c(=O)n1C)N[C@H]1[C@H](OC(C)=O)[C@@H](OC(C)=O)CO[C@H]1N2 | > 100 µM (inactive) | > 100 µM (inactive) | > 100 µM (inactive) | > 100 | > 100 µM (inactive) | > 100 µM (inactive) | > 100 µM (inactive) | > 100 µM (inactive) | > 100 µM (inactive) | > 100 µM (inactive) | > 100 µM (inactive) | – | > 100 µM (inactive) | > 100 µM (inactive) | > 100 µM (inactive) | > 100 µM (inactive) | > 100 µM (inactive) | > 100 µM (inactive) | > 100 µM (inactive) | > 100 µM (inactive) |
| COC(C)(C)/C=C/c1[nH]c2ccccc2c1CC(=O)NCCc1cn(C(c2ccccc2)(c2ccccc2)c2ccccc2)cn1 | 2.71 µM (inactive) | 3.25 µM (inactive) | 5.46 µM (inactive) | 4.25 | 3.62 µM (inactive) | 4.13 µM (inactive) | 2.36 µM (inactive) | 4.92 µM (inactive) | 3.66 µM (inactive) | 5.4 µM (inactive) | 3.41 µM (inactive) | 0.0272 µM (active) | 4.99 µM (inactive) | 4.53 µM (inactive) | 2.71 µM (inactive) | 7.91 µM (inactive) | 4.82 µM (inactive) | 3.76 µM (inactive) | 4.72 µM (inactive) | – |
| C[C@H](C1CC2(C)OC2(C)C(=O)O1)[C@H]1CC[C@H]2[C@@H]3[C@@H]4O[C@@H]4[C@@]4(O)CC=CC(=O)[C@]4(C)[C@H]3CC[C@]12C (stereo partly specified) | 24.9 µM (inactive) | > 50 µM (inactive) | > 50 µM (inactive) | > 50 | > 50 µM (inactive) | – | > 50 µM (inactive) | > 50 µM (inactive) | > 50 µM (inactive) | > 50 µM (inactive) | > 50 µM (inactive) | > 50 µM (inactive) | > 50 µM (inactive) | > 50 µM (inactive) | > 50 µM (inactive) | > 50 µM (inactive) | > 50 µM (inactive) | – | > 50 µM (inactive) | 8.18 µM (inactive) |
| CC[C@H]1C=CCC[C@@]2(C[C@@H]3CC[C@@H]4[C@H](C(=O)OCCCCCCCCCCCCCCCC(=O)N(CCCN)C[C@@H](O)CCN)[C@]5(CCC[C@@H](C)O5)NC(=[N+]34)N2)O1 | 0.824 µM (active) | 0.625 µM (active) | 1.44 µM (inactive) | 0.41 | 0.0524 µM (active) | 0.556 µM (active) | 0.0869 µM (active) | 0.887 µM (active) | 0.083 µM (active) | 0.239 µM (active) | 0.766 µM (active) | 0.175 µM (active) | 0.451 µM (active) | 0.0249 µM (active) | 0.299 µM (active) | 0.544 µM (active) | 0.248 µM (active) | 0.245 µM (active) | 0.143 µM (active) | – |
| C[N+](C)(C)CC(=O)N/N=C/c1ccncc1 | > 100 µM (inactive) | > 100 µM (inactive) | > 100 µM (inactive) | > 100 | > 100 µM (inactive) | > 100 µM (inactive) | > 100 µM (inactive) | > 100 µM (inactive) | > 100 µM (inactive) | > 100 µM (inactive) | > 100 µM (inactive) | – | > 100 µM (inactive) | > 100 µM (inactive) | > 100 µM (inactive) | > 100 µM (inactive) | > 100 µM (inactive) | > 100 µM (inactive) | > 100 µM (inactive) | > 100 µM (inactive) |
| CSc1nc(=O)c2nc(-c3cccs3)c(-c3cccs3)nc2n1C | 18.7 µM (inactive) | 32.3 µM (inactive) | > 100 µM (inactive) | > 100 | > 100 µM (inactive) | – | > 100 µM (inactive) | – | 75.3 µM (inactive) | 43.5 µM (inactive) | 43.6 µM (inactive) | > 100 µM (inactive) | 29.3 µM (inactive) | > 100 µM (inactive) | > 100 µM (inactive) | 37.2 µM (inactive) | 57.5 µM (inactive) | 50.9 µM (inactive) | 30.2 µM (inactive) | 18.7 µM (inactive) |
| Cc1ccc(NC(=O)/C(Cc2cc(=O)oc3cc(O)ccc23)=N\NC(C)(C)C)cc1C | > 100 µM (inactive) | > 100 µM (inactive) | – | > 100 | > 100 µM (inactive) | > 100 µM (inactive) | > 100 µM (inactive) | > 100 µM (inactive) | – | – | > 100 µM (inactive) | 29.4 µM (inactive) | > 100 µM (inactive) | > 100 µM (inactive) | > 100 µM (inactive) | > 100 µM (inactive) | > 100 µM (inactive) | – | > 100 µM (inactive) | – |
| OC[C@H](O)[C@@H](OCc1ccccc1)[C@H](NCc1ccccc1)c1cccs1 | > 100 µM (inactive) | > 100 µM (inactive) | > 100 µM (inactive) | > 100 | > 100 µM (inactive) | > 100 µM (inactive) | > 100 µM (inactive) | > 100 µM (inactive) | > 100 µM (inactive) | 75.5 µM (inactive) | > 100 µM (inactive) | – | > 100 µM (inactive) | > 100 µM (inactive) | 60 µM (inactive) | 4.11 µM (inactive) | > 100 µM (inactive) | > 100 µM (inactive) | > 100 µM (inactive) | 65.3 µM (inactive) |
| CC(C)(CC(O)C#N)/[N+]([O-])=[N+](\[O-])C(C)(C)CC(O)C#N (stereo unspecified) | 27.5 µM (inactive) | > 100 µM (inactive) | 26.7 µM (inactive) | 15.2 | 32.9 µM (inactive) | – | 10.3 µM (inactive) | 22.5 µM (inactive) | 23.5 µM (inactive) | 21.2 µM (inactive) | 19.3 µM (inactive) | 17.2 µM (inactive) | 32.3 µM (inactive) | 16 µM (inactive) | 28.4 µM (inactive) | 23.4 µM (inactive) | 17.6 µM (inactive) | 21.6 µM (inactive) | 18.2 µM (inactive) | 23.7 µM (inactive) |
| Cc1ccc2oc3c(c(Br)c(Br)n3C)c(=O)c2c1 | 41.5 µM (inactive) | 20.9 µM (inactive) | 19 µM (inactive) | > 100 | > 100 µM (inactive) | 20 µM (inactive) | > 100 µM (inactive) | 19.6 µM (inactive) | 41.6 µM (inactive) | 10.5 µM (inactive) | 18.3 µM (inactive) | – | 17.4 µM (inactive) | 31.3 µM (inactive) | 91.8 µM (inactive) | 29.4 µM (inactive) | 31.3 µM (inactive) | 24.7 µM (inactive) | 16.7 µM (inactive) | – |
| CC12CCC(C(=O)n3c1nc1ccccc13)C(C)(C)O2 (stereo unspecified) | > 100 µM (inactive) | – | > 100 µM (inactive) | > 100 | > 100 µM (inactive) | > 100 µM (inactive) | > 100 µM (inactive) | > 100 µM (inactive) | > 100 µM (inactive) | > 100 µM (inactive) | > 100 µM (inactive) | > 100 µM (inactive) | > 100 µM (inactive) | > 100 µM (inactive) | > 100 µM (inactive) | > 100 µM (inactive) | > 100 µM (inactive) | > 100 µM (inactive) | > 100 µM (inactive) | 15.6 µM (inactive) |
| Clc1cc2nc(C3CCCCO3)[nH]c2cc1Cl (stereo unspecified) | 14.3 µM (inactive) | – | > 77.3 µM (inactive) | 6.98 | 7.67 µM (inactive) | 26.8 µM (inactive) | 33.3 µM (inactive) | 5.09 µM (inactive) | > 63.1 µM (inactive) | 24 µM (inactive) | 38.9 µM (inactive) | 38 µM (inactive) | 17.7 µM (inactive) | 28.5 µM (inactive) | 3.5 µM (inactive) | 27.9 µM (inactive) | 20.3 µM (inactive) | 38.5 µM (inactive) | 34 µM (inactive) | 15.2 µM (inactive) |
| COc1c(-c2nc3ccc(N4CCN(C)CC4)nc3[nH]2)cc(OC)c2c1nc(COC(C)=O)n2C | > 100 µM (inactive) | > 100 µM (inactive) | < 0.01 µM (active) | > 100 | 71.8 µM (inactive) | – | > 100 µM (inactive) | > 100 µM (inactive) | > 100 µM (inactive) | > 100 µM (inactive) | > 100 µM (inactive) | – | > 100 µM (inactive) | > 100 µM (inactive) | 56.1 µM (inactive) | > 100 µM (inactive) | > 100 µM (inactive) | > 100 µM (inactive) | > 100 µM (inactive) | – |
| O=C(O)c1cccc(S(=O)(=O)NN2C(=O)CSC2c2ccccc2Cl)c1 (stereo unspecified) | > 100 µM (inactive) | – | > 100 µM (inactive) | > 100 | > 100 µM (inactive) | > 100 µM (inactive) | > 100 µM (inactive) | > 100 µM (inactive) | > 100 µM (inactive) | > 100 µM (inactive) | > 100 µM (inactive) | > 100 µM (inactive) | > 100 µM (inactive) | > 100 µM (inactive) | > 100 µM (inactive) | > 100 µM (inactive) | > 100 µM (inactive) | > 100 µM (inactive) | > 100 µM (inactive) | > 100 µM (inactive) |
